Data set [1] deals with T1, PDGFR (Homo sapiens, UniProt P09619). Put plainly: PDGF-stimulated receptor phosphorylation in U1242 cells, ELISA. Also on record: U1242 (PDGF-β receptor); host or cells: U1242 MG glioma cells. The class given is cell-based. The note with it: 100 ng/ml PDGF-BB; read-out: ELISA P-TYR U1242 IC50. The procedure: (§1) For ELISA assays, cells were grown to 80-90% confluency in growth medium and seeded in 96-well tissue culture plates in 0.5% serum at 25,000 to 30,000 cells per well. After overnight incubation in 0.5% serum-containingmedium, cells were changed to serum-free medium and treated with test compound for 2 hr in a 5% CO2, 37° C. incubator. Cells were then stimulated with ligand for 5-10 min followed by lysis with HNTG (20 mM Hepes, 150 mM NaCl, 10% glycerol, 5 mM EDTA, 5 mM Na3 VO4 0.2% Triton X-100, and 2 mM NaPyr). […] Lysates were incubated with shaking for 1 hr at room temperature. The plates were washed with TBST four times and then incubated with polyclonol anti-phosphotyrosine antibody at room temperature for 30 min. Excess anti-phosphotyrosine antibody was removed by rinsing the plate with TBST four times. Goat anti-rabbit IgG antibody was added to the ELISA plate for 30 min at room temperature followed by rinsing with TBST four more times.
T1 sequence (P09619 33-1106): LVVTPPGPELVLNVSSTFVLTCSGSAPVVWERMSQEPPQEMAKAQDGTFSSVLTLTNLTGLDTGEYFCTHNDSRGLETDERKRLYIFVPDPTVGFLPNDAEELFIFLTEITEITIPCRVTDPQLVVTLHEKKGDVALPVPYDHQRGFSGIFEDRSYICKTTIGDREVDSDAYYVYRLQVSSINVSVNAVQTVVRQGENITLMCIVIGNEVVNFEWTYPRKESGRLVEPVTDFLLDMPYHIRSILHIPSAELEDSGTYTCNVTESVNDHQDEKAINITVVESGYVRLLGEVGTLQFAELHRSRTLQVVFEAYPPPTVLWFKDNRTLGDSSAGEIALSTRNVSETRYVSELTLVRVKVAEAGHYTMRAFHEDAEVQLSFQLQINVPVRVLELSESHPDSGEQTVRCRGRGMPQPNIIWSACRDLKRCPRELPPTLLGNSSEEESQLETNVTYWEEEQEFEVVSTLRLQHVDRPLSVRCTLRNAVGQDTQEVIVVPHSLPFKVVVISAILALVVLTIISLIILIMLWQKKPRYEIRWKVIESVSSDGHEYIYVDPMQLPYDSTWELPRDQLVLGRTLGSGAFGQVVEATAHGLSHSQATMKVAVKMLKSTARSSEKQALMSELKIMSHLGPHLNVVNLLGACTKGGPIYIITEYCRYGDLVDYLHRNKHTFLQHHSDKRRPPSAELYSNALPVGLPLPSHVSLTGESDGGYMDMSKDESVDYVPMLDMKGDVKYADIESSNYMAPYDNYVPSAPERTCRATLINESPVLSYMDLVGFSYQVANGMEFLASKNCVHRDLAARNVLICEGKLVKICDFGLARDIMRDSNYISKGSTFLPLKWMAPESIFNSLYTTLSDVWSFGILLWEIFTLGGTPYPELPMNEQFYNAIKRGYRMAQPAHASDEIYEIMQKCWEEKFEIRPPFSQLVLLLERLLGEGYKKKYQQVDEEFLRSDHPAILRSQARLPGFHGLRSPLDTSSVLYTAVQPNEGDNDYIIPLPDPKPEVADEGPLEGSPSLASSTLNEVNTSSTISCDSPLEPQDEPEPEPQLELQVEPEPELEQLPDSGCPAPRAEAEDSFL
U1242 MG cells were plated in 96-well plates at a concentration of 5×10^4 cells/well in cultured media containing 0.5% FBS. The cells were incubated for 24 hours. The cells were then treated with a particular compound for 2 hours followed by the addition of 100 ng/ml PDGF-BB and incubation for 10 minutes.
Cells were lysed in 0.2 M Hepes, 0.15 M NaCl, 10% V/V glycerol, 0.04% Triton X-100, 5 mM EDTA, 5 MM Na^+ vanadate and […] Na^+ pyrophosphate. Cell lysates were then added to an ELISA plate coated with an anti-PDGF receptor antibody (Genzyme). ELISA plates were coated at […] of antibody/well in […] of PBS for 18 hours at 4° C. prior to the addition of the lysate.
The lysate was incubated in the coated plates for 1 hour and then washed four times in TBST (35 mM Tris-HCl pH 7.0, 0.15 M NaCl, 0.1% Triton X-100). Anti-phosphotyrosine antibody ([…] in PBS) was added and the mixture was incubated for 30 minutes at room temperature. The wells were then washed four times in TBST, a secondary antibody conjugated to POD (TAGO) was added to each well, and the treated wells were incubated for 30 minutes at room temperature. The wells were then washed four times in TBST, ABTS/H2 O2 solution was added to each well and the wells were incubated for two minutes. Absorbance was then measured at 410 nm.
On the technique in general: An ELISA detects its analyte on a solid surface through an enzyme-linked reagent.

Another data set deals with U1242 cells. Description: Cytotoxicity in U1242 cells, MTT. It is filed as cell-based, human. The note with it: Homo sapiens, read-out: CYTOXICITY MTT U1242 LD50; heading: CYTOXICITY MTT U1242 LD50. The procedure: The cytotoxicity of each drug was also determined. The cells were plated as described above. Following incubation with drug, cell survival was measured by an MTT assay as described by Mossman J. Immunol. Methods 65:55-63 (1983), or by measuring the amount of LDH released (Korzeniewski and Callewaert, J. Immunol. Methods 64:313 (1983); Decker and Lohmann-Matthes, J. Immunol. Methods 115:61 (1988) .

For another data set, the target named is T2, EGFR (Homo sapiens, UniProt P00533).
T2 construct: expressed in transfected cells; host or cells: NIH3T3 mouse fibroblasts, retroviral vector
T2 sequence (P00533 25-1210): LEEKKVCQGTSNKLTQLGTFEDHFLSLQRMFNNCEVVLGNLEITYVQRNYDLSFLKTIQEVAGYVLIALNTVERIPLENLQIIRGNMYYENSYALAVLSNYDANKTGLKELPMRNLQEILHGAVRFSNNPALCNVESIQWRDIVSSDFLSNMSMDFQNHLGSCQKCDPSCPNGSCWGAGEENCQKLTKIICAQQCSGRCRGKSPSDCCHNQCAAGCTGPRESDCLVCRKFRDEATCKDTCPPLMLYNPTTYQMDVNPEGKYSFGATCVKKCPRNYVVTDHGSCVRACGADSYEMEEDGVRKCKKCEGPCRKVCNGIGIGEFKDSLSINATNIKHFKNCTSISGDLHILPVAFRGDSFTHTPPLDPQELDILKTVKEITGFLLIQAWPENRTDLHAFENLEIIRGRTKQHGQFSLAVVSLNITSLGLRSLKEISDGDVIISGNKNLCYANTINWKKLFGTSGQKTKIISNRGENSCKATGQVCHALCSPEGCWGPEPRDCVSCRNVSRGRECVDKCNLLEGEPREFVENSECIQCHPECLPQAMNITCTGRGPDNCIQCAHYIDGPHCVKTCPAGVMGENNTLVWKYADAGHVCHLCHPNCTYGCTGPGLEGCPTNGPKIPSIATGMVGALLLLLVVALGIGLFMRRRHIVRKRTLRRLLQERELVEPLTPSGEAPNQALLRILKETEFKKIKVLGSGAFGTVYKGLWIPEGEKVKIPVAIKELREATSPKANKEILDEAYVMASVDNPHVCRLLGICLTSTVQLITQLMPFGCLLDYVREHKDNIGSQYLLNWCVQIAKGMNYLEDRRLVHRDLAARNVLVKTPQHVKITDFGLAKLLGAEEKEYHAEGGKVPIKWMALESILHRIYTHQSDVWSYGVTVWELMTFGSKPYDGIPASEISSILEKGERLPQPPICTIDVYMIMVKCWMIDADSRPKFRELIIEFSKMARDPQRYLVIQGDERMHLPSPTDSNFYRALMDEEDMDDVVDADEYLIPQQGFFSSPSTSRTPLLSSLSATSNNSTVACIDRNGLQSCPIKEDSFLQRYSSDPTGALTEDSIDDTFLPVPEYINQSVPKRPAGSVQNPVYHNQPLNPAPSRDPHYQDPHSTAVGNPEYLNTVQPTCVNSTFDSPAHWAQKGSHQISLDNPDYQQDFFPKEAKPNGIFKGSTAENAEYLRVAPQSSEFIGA
Description: Receptor tyrosine kinase inhibition, EGFR. It is filed as cell-based. The note with it: read-out: EGFR ID50. The procedure: (§2) For western blotting, cells were plated in 2 mL growth medium into 6-well dishes (500,000 cells per well) and allowed to attach overnight. The medium was replaced with 2 mL MCDB 105 (UCSF Cell Culture Facility) supplemented with 1% FBS. The plates were then incubated overnight at 37° C., ambient CO2. […] After a 7 min incubation at room temperature with ligand, the plates were put on ice and washed three times with 1 mL ice-cold PBS plus 1 mM orthovanadate. Lysis was achieved by pipetting cells in 0.5 mL of buffer containing 50 mM Tris, pH 7.4, 10% glycerol, 1% NP-40, 2 mM EDTA, 1 mM sodium vanadate (Na3 VO4), 10 mM pyrophosphate, 1 mM PMSF, […]. A 300 μL aliquot of each lysate was immediately added to 100 μL 4×Laemmli sample buffer ([…] Tris pH 6.9, 20% glycerol, 7% SDS, 5 mM EDTA, 5% β-mercaptoethanol) containing phosphatase inhibitors, 2 mM Na3 VO4 and 10 mM pyrophosphate. Samples were boiled for 5 min, frozen in dry ice-ethanol, and stored at -80° C. Proteins were resolved by SDS-PAGE (Bio-Rad Miniprotean II) and transferred to nitrocellulose membrane (Schleicher & Schuell) at 120 volts for 1 hr at room temperature in buffer containing 25 mM Tris pH 8.3, 20% methanol, 0.2 M glycine, 0.1% SDS. The integrity of the protein-to-membrane transfer was determined by staining with 1% Ponceau S in 5% acetic acid for 5 min. After destaining in several distilled water rinses, the membrane was soaked overnight in blocking buffer containing 5% milk in Tris-buffered saline, 0.05% Tween 20. Phosphotyresine was detected by incubating the membrane (1 hr at room temperature) with an anti-phosphotyosine antiserum diluted in blocking buffer at 1:3000. For C6 cells, PDGF-β receptor content in the lysates was confirmed in duplicate sample lanes by western blotting using an antibody specific for PDGF-β receptor (UBI). The antibodies were visualized using ECL reagent from Amersham and by exposure to Fuji RX film.
(§3) For ELISA assays, cells were grown to 80-90% confluency in growth medium and seeded in 96-well tissue culture plates in 0.5% serum at 25,000 to 30,000 cells per well. After overnight incubation in 0.5% serum-containingmedium, cells were changed to serum-free medium and treated with test compound for 2 hr in a 5% CO2, 37° C. incubator. Cells were then stimulated with ligand for 5-10 min followed by lysis with HNTG (20 mM Hepes, 150 mM NaCl, 10% glycerol, 5 mM EDTA, 5 mM Na3 VO4 0.2% Triton X-100, and 2 mM NaPyr). Cell lysates (0.5 mg/well in PBS) were transferred to ELISA plates previously coated with receptor-specific antibody and which had been blocked with 5% milk in TBST (50 mM Tris-HCl pH 7.2, 150 mM NaCl and 0.1% Triton X-100) at room temperature for 30 min. Lysates were incubated with shaking for 1 hr at room temperature. The plates were washed with TBST four times and then incubated with polyclonol anti-phosphotyrosine antibody at room temperature for 30 min. Excess anti-phosphotyrosine antibody was removed by rinsing the plate with TBST four times. Goat anti-rabbit IgG antibody was added to the ELISA plate for 30 min at room temperature followed by rinsing with TBST four more times.
(§4) The ability of different compound to inhibit different receptor tyrosine kinases was tested.

A further data set concerns the target T3, FLK-1 (Mus musculus, UniProt P35918).
T3 construct: expressed in transfected cells; host or cells: NIH3T3 mouse fibroblasts, retroviral vector
Put plainly: Receptor tyrosine kinase inhibition, FLK-1. The class given is cell-based. The note with it: read-out: FLK-1 IC50. The procedure:
as §2, §3, §4

Another data set can be described thus: LD10. The note with it: in vivo.
Another data set addresses T4, PDGF-R (U1242) (Homo sapiens, UniProt P09619).
T4 construct: U1242 (PDGF-β receptor); host or cells: U1242 MG glioma cells
Description: U1242 kinase (PDGF-R activity). The class given is cell-based. The procedure: as §2, with “The medium was replaced with 2 mL MCDB 105 (UCSF Cell Culture Facility) supplemented with 1% FBS.” left out, “Proteins were resolved by SDS-PAGE (Bio-Rad Miniprotean II) and transferred to nitrocellulose membrane (Schleicher & Schuell) at 120 volts for 1 hr at room temperature in buffer containing 25 mM Tris pH 8.3, 20% methanol, 0.2 M glycine, 0.1% SDS.” left out, “For C6 cells, PDGF-β receptor content in the lysates was confirmed in duplicate sample lanes by western blotting using an antibody specific for PDGF-β receptor (UBI).” left out
as §1, with “incubator.” for “incubator. Cells were then stimulated with ligand for 5-10 min followed by lysis with HNTG (20 mM Hepes, 150 mM NaCl, 10% glycerol, 5 mM EDTA, 5 mM Na3 VO4 0.2% Triton X-100, and 2 mM NaPyr).”
PDGF-R activity, C6 SRB, and in vivo efficacy were measured using the procedures described in the appendices above.

In data set [2] the target is T1, PDGFR. Description: Receptor tyrosine kinase inhibition, PDGFR. The class given is cell-based. Details: U1242 (PDGF-β receptor); host or cells: U1242 glioma cells (ELISA). The note with it: read-out: PDGFR IC50. The method, then:
as §2, with “The medium was replaced with 2 mL MCDB 105 (UCSF Cell Culture Facility) supplemented with 1% FBS.” left out, “Proteins were resolved by SDS-PAGE (Bio-Rad Miniprotean II) and transferred to nitrocellulose membrane (Schleicher & Schuell) at 120 volts for 1 hr at room temperature in buffer containing 25 mM Tris pH 8.3, 20% methanol, 0.2 M glycine, 0.1% SDS.” left out, “For C6 cells, PDGF-β receptor content in the lysates was confirmed in duplicate sample lanes by western blotting using an antibody specific for PDGF-β receptor (UBI).” left out
as §1, with “incubator.” for “incubator. Cells were then stimulated with ligand for 5-10 min followed by lysis with HNTG (20 mM Hepes, 150 mM NaCl, 10% glycerol, 5 mM EDTA, 5 mM Na3 VO4 0.2% Triton X-100, and 2 mM NaPyr).”
as §4

In a further data set the test system is C6 glioma cells. Description: C6 glioma SC xenograft in mice. It is filed as in vivo. The procedure: (§5) Cell lines were grown in appropriate medium (see Appendix 1). Cells were harvested at or near confluency with 0.05% Trypsin-EDTA and pelleted at 450×g for 10 min. Pellets were resuspended in sterile PBS or media (without FBS) to a particular concentration and the cells were implanted into the hindflank of mice. Tumor growth was measured over 3 to 6 weeks using venier calipers. Tumor volumes were calculated as a product of length×width×height unless otherwise indicated. P values were calculated using the Students' t-test.
(§6) C6 and SKOV-3(T) cells were grown in culture, as described in "cell growth" above, and implanted into the hind flank of a female Balb/c nu/nu mouse at 3×10^6 cells (for C6 experiments), or 1×10^7 cells (for SKOV-3 experiments) in […] of PBS on Day 0. U87MG, U118MG or U373MG human glioblastoma cells (obtained from the ATCC), or A4312 were also implanted into athymic mice. […] Tumors were measured using venier calipers and tumor volume was calculated as a product of tumor length, width, and height.

A short description of data set [3]: C6 glioma SC xenograft in mice. The class given is in vivo. The note with it: rat, in vivo, ip. The method, then:
as §5, §6

For the next data set, the system named is HER2. Put plainly: Receptor tyrosine kinase inhibition, HER2. The class given is cell-based. The note with it: read-out: HER2 IC50. The procedure:
as §2, §3, §4

Data set [4] concerns PDGFR. Description: Receptor tyrosine kinase inhibition, PDGFR. The note with it: W = done in Western assay; read-out: PDGFR IC50 (W). The class given is cell-based. The procedure: as §2, with “The medium was replaced with 2 mL MCDB 105 (UCSF Cell Culture Facility) supplemented with 1% FBS.” left out, “Proteins were resolved by SDS-PAGE (Bio-Rad Miniprotean II) and transferred to nitrocellulose membrane (Schleicher & Schuell) at 120 volts for 1 hr at room temperature in buffer containing 25 mM Tris pH 8.3, 20% methanol, 0.2 M glycine, 0.1% SDS.” left out, “For C6 cells, PDGF-β receptor content in the lysates was confirmed in duplicate sample lanes by western blotting using an antibody specific for PDGF-β receptor (UBI).” left out
as §1, with “incubator.” for “incubator. Cells were then stimulated with ligand for 5-10 min followed by lysis with HNTG (20 mM Hepes, 150 mM NaCl, 10% glycerol, 5 mM EDTA, 5 mM Na3 VO4 0.2% Triton X-100, and 2 mM NaPyr).”
as §4

Another data set relates to C6 cells. Put plainly: C6 SRB growth assay. The note with it: Rattus norvegicus, C6; read-out: C6 SRB IC50. It is filed as cell-based, rat. Background: Sulforhodamine B stains cellular protein and so reports cell mass.
Where [5] appears, read: 40 mg/kg (J10 at d18, G24 at d15).

“And” between values parts separate entries of the source, which are not always exact repeats. Equal values may be shown once. Read-outs that look alike come from different tables or passages of the source.

The term mortality denotes the percentage killed.

T4 sequence (P09619 33-1106): as the sequence (P09619 33-1106) above
T3 sequence (P35918 20-1345): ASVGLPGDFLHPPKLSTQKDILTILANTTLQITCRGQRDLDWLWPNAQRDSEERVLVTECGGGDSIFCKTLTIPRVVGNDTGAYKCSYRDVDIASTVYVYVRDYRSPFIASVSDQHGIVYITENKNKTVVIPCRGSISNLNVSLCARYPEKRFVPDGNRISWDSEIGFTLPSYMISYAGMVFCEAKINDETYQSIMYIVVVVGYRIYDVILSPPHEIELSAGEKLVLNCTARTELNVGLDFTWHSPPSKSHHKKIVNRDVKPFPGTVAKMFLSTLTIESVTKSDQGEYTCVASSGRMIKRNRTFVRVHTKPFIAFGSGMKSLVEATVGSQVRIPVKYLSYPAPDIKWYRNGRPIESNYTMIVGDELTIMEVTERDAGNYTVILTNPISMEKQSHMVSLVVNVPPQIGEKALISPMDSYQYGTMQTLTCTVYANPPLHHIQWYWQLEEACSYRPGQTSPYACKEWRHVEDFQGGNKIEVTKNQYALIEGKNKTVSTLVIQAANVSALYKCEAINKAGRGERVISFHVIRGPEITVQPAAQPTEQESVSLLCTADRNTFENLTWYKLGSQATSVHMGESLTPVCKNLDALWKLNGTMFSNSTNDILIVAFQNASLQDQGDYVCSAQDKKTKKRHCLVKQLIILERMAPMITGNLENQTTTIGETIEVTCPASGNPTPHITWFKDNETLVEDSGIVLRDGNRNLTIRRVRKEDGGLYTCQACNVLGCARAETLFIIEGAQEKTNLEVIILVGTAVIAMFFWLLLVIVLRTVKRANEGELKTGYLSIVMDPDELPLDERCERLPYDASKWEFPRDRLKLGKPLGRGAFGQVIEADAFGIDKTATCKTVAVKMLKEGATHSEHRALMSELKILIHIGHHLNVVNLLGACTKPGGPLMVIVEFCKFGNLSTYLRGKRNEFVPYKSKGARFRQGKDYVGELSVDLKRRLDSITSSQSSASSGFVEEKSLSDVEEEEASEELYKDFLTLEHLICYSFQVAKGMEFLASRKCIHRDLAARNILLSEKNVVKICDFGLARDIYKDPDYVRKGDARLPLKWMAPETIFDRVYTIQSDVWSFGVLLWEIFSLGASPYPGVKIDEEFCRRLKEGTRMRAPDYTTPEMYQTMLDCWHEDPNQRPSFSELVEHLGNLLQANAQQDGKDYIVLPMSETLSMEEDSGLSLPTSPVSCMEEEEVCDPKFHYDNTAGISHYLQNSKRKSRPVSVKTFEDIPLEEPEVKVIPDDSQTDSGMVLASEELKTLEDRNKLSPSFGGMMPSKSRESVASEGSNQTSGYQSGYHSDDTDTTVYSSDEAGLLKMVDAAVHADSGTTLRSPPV

For `N#CC(C(=O)Nc1ccc(C(F)(F)F)cc1)=C(O)c1cccc(Oc2ccccc2)c1` [Compound B16, 2-Propenamide, 2-cyano-3-hydroxy-3-((3-phenoxy)phenyl)-N-[(4-trifluoromethyl)phenyl]], the IC50 on PDGFR [1] came to 35 µM. Besides, the CC50 in the data set on U1242 cells is 50 µM.

In the case of `c1ccc(-c2cnc3ncccc3n2)cc1` [Compound G16], the IC50 at PDGFR [1] is 35 µM. The CC50 in the data set on U1242 cells is over 100 µM.

`Cc1cc2nc(-c3ccccc3)c(-c3ccc(O)c(O)c3)nc2cc1C` [Compound G24]: the IC50 on EGFR was over 100 µM; at FLK-1 it was 9.3 µM; on PDGF-R (U1242) (read-out: U1242 KINASE IC50), 600 nM and 5000 nM; on PDGFR [2] it was 5 µM; in the data set on HER2, over 50 µM. Also, the LD10 in “LD10” is given as over 200 mg/kg. In addition, the “C6 in vivo EFFICACY” value in the data set with C6 glioma cells (at 20 mg/kg), with C6 glioma cells (at 40 mg/kg) and in the data set with C6 glioma cells (at 60 mg/kg) was “no effect” in each case. Moreover, the mortality turned out to be 0% in [3] (20 mg/kg) and 12.5% in [3] (setting [5]). Moreover, the mortality at 240 h in [3] (60 mg/kg (G24 at d10)) was determined as 100%.

Take `N#CC(=Cc1cc(O)c(O)c(Br)c1)S(=O)(=O)C(C#N)=Cc1cc(O)c(O)c(Br)c1` [Compound J10]: the IC50 was over 100 µM at EGFR; 1000 nM with PDGFR [4]; 12 µM in the data set with C6 cells; 1000 nM on PDGF-R (U1242) (W = done in Western assay, read-out: U1242 KINASE IC50 (W)); over 50000 nM on PDGF-R (U1242) (read-out: U1242 KINASE IC50); over 100 µM in the data set with HER2. Besides, the LD10 in “LD10” amounted to 171 mg/kg. For the same molecule, in the data set on C6 glioma cells (Rattus norvegicus, C6 glioma, sc, at 40 mg/kg, read-out: C6 in vivo EFFICACY), the inhibition in vivo at 40 mg/kg turned out to be 73%. Further, the mortality in data set [3] (setting [5]) turned out to be 100%.
